Measurements reported in US11071788B2, “Antibody drug conjugates of kinesin spindel protein (KSP) inhibitors with antiB7H3-antibodies” (BAYER PHARMA AKTIENGESELLSCHAFT, priority 2015, dated 2021).
Where a name gives a salt, the structure may show the parent alone.

Key:
NCI-H292 = experiment: Cytotoxicity MTT assay, NCI-H292; type: cell-based, human
From the text: (§1) Table 2 below lists the IC50 values of representative working examples from the assay described and the corresponding cytotoxicity data (MTT assay).

KPL4 = experiment: Cytotoxicity MTT assay, KPL4; type: cell-based
From the text: as §1

Caco-2 cells = experiment: Cell permeability flux assay using Caco-2 cells; type: in vitro ADME; settings: for Papp (B-A): Caco-2, 2 hours incubation; for Efflux ratio: ratio of Papp (B-A) to Papp (A-B), Caco-2
[1] = target: motor domain of the human kinesin spindle protein KSP/Eg5 (Homo sapiens (Human), UniProt P52732); experiment: Inhibition of the kinesin spindle protein KSP/Eg5 (ATPase, malachite green); type: biochemical; settings: 10 nM KSP motor domain, microtubuli, 500 μM ATP, 2 h RT
Method: The motor domain of the human kinesin spindle protein KSP/Eg5 (tebu-bio/Cytoskeleton Inc, No. 027EG01-XL) was incubated in a concentration of 10 nM with microtubuli (bovine or porcine, tebu-bio/Cytoskeleton Inc) stabilized with 50 μg/ml taxol (Sigma No. T7191-5MG) for 5 min at RT in 15 mM PIPES, pH 6.8 (5 mM MgCl2 and 10 mM DTT, Sigma). […] Incubation was at RT for 2 h. ATPase activity was detected by detecting the inorganic phosphate formed using malachite green (Biomol). […] The positive controls used were monastrol (Sigma, M8515-1 mg) and ispinesib (AdooQ Bioscience A10486). The individual data of the dose-activity curve are eight-fold determinations. The IC50 values are means of two independent experiments.

[2] = Homo sapiens, NCI-H292, MTT assay

Sequence of motor domain of the human kinesin spindle protein KSP/Eg5 (P52732 18-359): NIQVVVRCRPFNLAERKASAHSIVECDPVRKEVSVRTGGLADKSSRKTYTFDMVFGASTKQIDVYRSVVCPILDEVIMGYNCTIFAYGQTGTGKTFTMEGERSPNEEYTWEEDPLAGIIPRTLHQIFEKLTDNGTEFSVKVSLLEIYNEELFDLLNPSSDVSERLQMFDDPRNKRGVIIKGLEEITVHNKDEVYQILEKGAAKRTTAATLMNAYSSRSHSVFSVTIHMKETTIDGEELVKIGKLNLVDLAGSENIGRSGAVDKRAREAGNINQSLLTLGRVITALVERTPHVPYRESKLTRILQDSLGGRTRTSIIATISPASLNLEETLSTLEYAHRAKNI

In the case of CC(C)(C)[C@H](c1cc(-c2cc(F)ccc2F)cn1Cc1ccccc1)N(CC[C@H](N)C(=O)NCCNC(=O)CNC(=O)C(CC(=O)O)SC[C@H](N)C(=O)O)C(=O)CO (mixture of isomers) [Example M27, 4-[(2-{[2-({(2S)-2-Amino-4-[{(1R)-1-[1-benzyl-4-(2,5-difluorophenyl)-1H-pyrrol-2-yl]-2,2-dimethylpropyl}(glycoloyl)amino]butanoyl}amino)ethyl]amino}-2-oxoethyl)amino]-3-{[(2R)-2-amino-2-carboxyethyl]sulfanyl}-4-oxobutanoic acid-trifluoroacetic acid (1:1)], the IC50 (NCI-H292; [2]) is reported as 276 nM.

With CC(C)(C)[C@H](c1cc(-c2cc(F)ccc2F)cn1Cc1ccccc1)N(CC[C@H](N)C(=O)NCCNC(=O)CNC(=O)CC(SC[C@H](N)C(=O)O)C(=O)O)C(=O)CO (single isomer, unassigned) [Example M13] the IC50 (KPL4; KPL4, MTT assay) was 169 nM and the IC50 (NCI-H292; [2]) was 152 nM.

With CC(C)(C)[C@H](c1cc(-c2cc(F)ccc2F)cn1Cc1ccccc1)N(CC[C@H](N)C(=O)NCCNC(=O)CNC(=O)CC(SC[C@H](N)C(=O)O)C(=O)O)C(=O)CO (single isomer, unassigned) [Example M14] the IC50 (KPL4; MTT assay) was 182 nM and the IC50 (NCI-H292; MTT assay) was 174 nM.

Molecule CC(C)(C)[C@H](c1cc(-c2cc(F)ccc2F)cn1Cc1ccccc1)N(CC[C@H](N)C(=O)NCCNC(=O)CNC(=O)C(CC(=O)O)SC[C@H](N)C(=O)O)C(=O)CO (single isomer, unassigned) [Example M15] has an IC50 (KPL4; KPL4, MTT assay) of 169 nM and an IC50 (NCI-H292; [2]) of 133 nM.

For CC(C)(C)[C@H](c1cc(-c2cc(F)ccc2F)cn1Cc1ccccc1)N(CC[C@H](N)C(=O)NCCNC(=O)CNC(=O)C(CC(=O)O)SC[C@H](N)C(=O)O)C(=O)CO (single isomer, unassigned) [Example M16], the IC50 (KPL4; KPL4, MTT assay) was 195 nM and the IC50 (NCI-H292; [2]) was 143 nM.

With CC(C)(C)[C@H](c1cc(-c2cc(F)ccc2F)cn1Cc1ccccc1)N(CC[C@H](N)C(=O)NCCNC(=O)CN1C(=O)CC(SC[C@H](N)C(=O)O)C1=O)C(=O)CO (stereo partly drawn) [Example M1, S-[1-(2-{[2-({(2S)-2-Amino-4-[{(1R)-1-[1-benzyl-4-(2,5-difluorophenyl)-1H-pyrrol-2-yl]-2,2-dimethylpropyl}(glycoloyl)amino]butanoyl}amino)ethyl]amino}-2-oxoethyl)-2,5-dioxopyrrolidin-3-yl]-L-cysteine/trifluoroacetic acid (1:1)] the IC50 (KPL4; KPL4, MTT assay) was 500 nM and the IC50 (NCI-H292; [2]) was 500 nM.

With CC(C)(C)[C@H](c1cc(-c2cc(F)ccc2F)cn1Cc1ccccc1)N(CC[C@H](N)C(=O)NCCNC(=O)CNC(=O)CC(SC[C@H](N)C(=O)O)C(=O)O)C(=O)CO (some centres unmarked) [Example M2] the IC50 (KPL4; MTT assay) was 163 nM, the IC50 (NCI-H292; MTT assay) was 204 nM and the “Papp (B-A)” value (Caco-2 cells) was 0.48 ×10⁻⁶ cm/s.

For CC(C)(C)[C@H](c1cc(-c2cc(F)ccc2F)cn1Cc1ccccc1)N(CC[C@H](N)C(=O)N[C@H](CNC(=O)CNC(=O)CC(SC[C@H](N)C(=O)O)C(=O)O)C(=O)O)C(=O)CO (some centres unmarked) [Example M3], the IC50 (KPL4; MTT assay) was 90 nM, the IC50 (NCI-H292; MTT assay) was 32.1 nM and the “Papp (B-A)” value (Caco-2 cells) was 0.14 ×10⁻⁶ cm/s. It also gave an Efflux ratio (Caco-2 cells) of 1.3 and an IC50 [1] of 1.52 nM.

In the case of CC(C)(C)[C@H](c1cc(-c2cc(F)ccc2F)cn1Cc1ccccc1)N(CC[C@H](N)C(=O)NCCOCCN1C(=O)CC(SC[C@H](N)C(=O)O)C1=O)C(=O)CO (stereo partly drawn) [Example M4, S-(1-{2-[2-({(2S)-2-Amino-4-[{(1R)-1-[1-benzyl-4-(2,5-difluorophenyl)-1H-pyrrol-2-yl]-2,2-dimethylpropyl}(glycoloyl)amino]butanoyl}amino)ethoxy]ethyl}-2,5-dioxopyrrolidin-3-yl)-L-cysteine/trifluoroacetic acid (1:1)], the IC50 (KPL4; KPL4, MTT assay) is reported as 176 nM and the IC50 (NCI-H292; [2]) is reported as 44.3 nM.

For CC(C)(C)[C@H](c1cc(-c2cc(F)ccc2F)cn1Cc1ccccc1)N(CC[C@H](N)C(=O)NCCOCCNC(=O)CC(SC[C@H](N)C(=O)O)C(=O)O)C(=O)CO (some centres unmarked) [Example M5], the IC50 (KPL4; MTT assay) was 222 nM, the IC50 (NCI-H292; MTT assay) was 79.4 nM and the “Papp (B-A)” value (Caco-2 cells) was 2.03 ×10⁻⁶ cm/s. It also gave an Efflux ratio (Caco-2 cells) of 26.5 and an IC50 [1] of 0.457 nM.

CC(C)(C)[C@H](c1cc(-c2cc(F)ccc2F)cn1Cc1ccccc1)N(CC[C@H](N)C(=O)NCCNC(=O)CSC[C@H](N)C(=O)O)C(=O)CO [Example M7, S-(2-{[2-({(2S)-2-Amino-4-[{(1R)-1-[1-benzyl-4-(2,5-difluorophenyl)-1H-pyrrol-2-yl]-2,2-dimethylpropyl}(glycoloyl)amino]butanoyl}amino)ethyl]amino}-2-oxoethyl)-L-cysteine/trifluoroacetic acid (1:1)] gave an IC50 (KPL4; KPL4, MTT assay) of 92.5 nM and an IC50 (NCI-H292; [2]) of 22.2 nM.

CC(C)(C)[C@H](c1cc(-c2cc(F)ccc2F)cn1Cc1ccccc1)N(CCCN)C(=O)CO [Example M9, N-(3-Aminopropyl)-N-{(1R)-1-[1-benzyl-4-(2,5-difluorophenyl)-1H-pyrrol-2-yl]-2,2-dimethylpropyl}-2-hydroxyacetamide] showed an IC50 (KPL4; KPL4) of 0.257 nM and an IC50 (NCI-H292; Homo sapiens, NCI-H292) of 0.774 nM.

For CC(C)(C)[C@H](c1cc(-c2cc(F)ccc2F)cn1Cc1ccccc1)N(CCCN)C(=O)CSC[C@H](NC(=O)CCOCCOCCOCCOCCNC(=O)CCNC(=O)CC(SC[C@H](N)C(=O)O)C(=O)O)C(=O)O (some centres unmarked) [Example M10], the IC50 (KPL4; MTT assay) was 226 nM, the IC50 (NCI-H292; MTT assay) was 303 nM and the IC50 [1] was 0.47 nM.

CC(C)(C)[C@H](c1cc(-c2cc(F)ccc2F)cn1Cc1ccccc1)N(CCCN)C(=O)CSC[C@H](N)C(=O)O [Example M11, S-{2-[(3-Aminopropyl){(1R)-1-[1-benzyl-4-(2,5-difluorophenyl)-1H-pyrrol-2-yl]-2,2-dimethyl-propyl}amino]-2-oxoethyl}-L-cysteine/trifluoroacetic acid (1:2)] gave an IC50 (NCI-H292; [2]) of 0.0432 nM.

Molecule CC(C)(C)[C@H](c1cc(-c2cc(F)ccc2F)cn1Cc1ccccc1)N(CCCN)C(=O)CSC[C@H](NC(=O)CCC(=O)O)C(=O)O [Example M12, 4-{[(1R)-2-({2-[(3-Aminopropyl) {(1R)-1-[1-benzyl-4-(2,5-difluorophenyl)-1H-pyrrol-2-yl]-2,2-dimethylpropyl}amino]-2-oxoethyl}sulphanyl)-1-carboxyethyl]amino}-4-oxobutanoic acid/trifluoroacetic acid (1:1)] has an IC50 (NCI-H292; [2]) of 33 nM.

With CC(C)(C)[C@H](c1cc(-c2cc(F)ccc2F)cn1Cc1ccccc1)N(CC[C@H](N)C(=O)O)C(=O)CO [Example M17, (2S)-2-Amino-4-[{(1R)-1-[1-benzyl-4-(2,5-difluorophenyl)-1H-pyrrol-2-yl]-2,2-dimethylpropyl}(glycoloyl)amino]butanoic acid hydrochloride (1.1)] the IC50 (NCI-H292; [2]) was 7.35 nM.

Molecule CC(C)(C)[C@H](c1cc(-c2cc(F)ccc2F)cn1Cc1ccccc1)N(CC[C@H](N)C(=O)NCCNC(=O)CC[C@H](N)C(=O)O)C(=O)CO [Example M18, N-[2-({(2S)-2-Amino-4-[{(1R)-1-[1-benzyl-4-(2,5-difluorophenyl)-1H-pyrrol-2-yl]-2,2-dimethylpropyl}(glycoloyl)amino]butanoyl}amino)ethyl]-L-glutamine/trifluoroacetic acid (1.1)] has an IC50 (NCI-H292; [2]) of 35.5 nM.

For CC(C)(C)[C@H](c1cc(-c2cc(F)ccc2F)cn1Cc1ccccc1)N(CC[C@H](N)C(=O)NCCC(=O)NCCCC[C@H](N)C(=O)O)C(=O)CO [Example M19, N^6—(N-{(2S)-2-Amino-4-[{(1R)-1-[1-benzyl-4-(2,5-difluorophenyl)-1H-pyrrol-2-yl]-2,2-dimethylpropyl}(glycoloyl)amino]butanoyl}-beta-alanyl)-L-lysine/trifluoroacetic acid (1:1)], the IC50 (NCI-H292; [2]) was 121 nM.

In the case of CC(C)(C)[C@H](c1cc(-c2cc(F)ccc2F)cn1Cc1ccccc1)N(CCCN)C(=O)CSC[C@H](NC(=O)CCOCCOCCOCCOCCNC(=O)CNC(=O)CC(SC[C@H](N)C(=O)O)C(=O)O)C(=O)O (stereo partly drawn) [Example M20, (1R,4R,27R,33R)-1-Amino-32-(3-aminopropyl)-33-[1-benzyl-4-(2,5-difluorophenyl)-1H-pyrrol-2-yl]-34,34-dimethyl-6,9,25,31-tetraoxo-13,16,19,22-tetraoxa-3,29-dithia-7,10,26,32-tetraazapentatriacontane-1,4,27-tricarboxylic acid/trifluoroacetic acid (1:2)], the IC50 (KPL4; KPL4, MTT assay) is reported as 213 nM and the IC50 (NCI-H292; [2]) is reported as 149 nM.

With CC(C)(C)[C@H](c1cc(-c2cc(F)ccc2F)cn1Cc1ccccc1)N(CCCN)C(=O)CSC[C@H](NC(=O)CCOCCOCCOCCOCCNC(=O)CNC(=O)CC(SC[C@@H](N)C(=O)O)C(=O)O)C(=O)O (some centres unmarked) [Example M22] the IC50 (KPL4; MTT assay) was 182 nM, the IC50 (NCI-H292; MTT assay) was 28.9 nM and the “Papp (B-A)” value (Caco-2 cells) was 0.09 ×10⁻⁶ cm/s.

CC(C)(C)[C@H](c1cc(-c2cc(F)ccc2F)cn1Cc1ccccc1)N(CC[C@H](N)C(=O)NCCC(=O)N[C@@H](CCC(=O)O)C(=O)O)C(=O)CO [Example M23, N-{(2S)-2-Amino-4-[{(1R)-1-[1-benzyl-4-(2,5-difluorophenyl)-1H-pyrrol-2-yl]-2,2-dimethylpropyl}(glycoloyl)amino]butanoyl}-beta-alanyl-L-glutamic acid-trifluoroacetic acid (1.1)] was tested, and the IC50 (KPL4; KPL4, MTT assay) was 500 nM and the IC50 (NCI-H292; [2]) was 500 nM.

Work on CC(C)(C)[C@H](c1cc(-c2cc(F)ccc2F)cn1Cc1ccccc1)N(CC[C@H](N)C(=O)NCCC(=O)N[C@H](CCC(=O)O)C(=O)O)C(=O)CO [Example M24, N-{(2S)-2-Amino-4-[{(1R)-1-[1-benzyl-4-(2,5-difluorophenyl)-1H-pyrrol-2-yl]-2,2-dimethylpropyl}(glycoloyl)amino]butanoyl}-beta-alanyl-D-glutamic acid-trifluoroacetic acid] yielded an IC50 (KPL4; KPL4, MTT assay) of 500 nM and an IC50 (NCI-H292; [2]) of 167 nM.
